The conditions of data set [1]: octanol/water; cited from earlier work.
The nature of data set [2]: stability under ethylene oxide sterilization, heating and aging; reaction with paclitaxel. To be noted: for reaction with paclitaxel: ethylene oxide sterilization, heating, aging.
The conditions of data set [3]: BSA added; cited from earlier work.
For another data set, the system named is protein (albumin). To be noted: cited from earlier work.
The conditions of data set [4]: cited from earlier work.

On to `COc1ccc(O)c(C(C)(C)C)c1` [Butylated hydroxyanisole], for which, in data set [1], the “log P” value is listed as 1.31.
Turning to `O=C1O[C@H]([C@@H](O)CO)C(O)=C1O` [ascorbic acid], the reaction with paclitaxel result in data set [2] was “reacted with paclitaxel”.
Take `O=C(O)c1ccccc1` [benzoic acid]: in data set [2], the reaction with paclitaxel result is “reacted with paclitaxel”. Moreover, in data set [2] (formulated with paclitaxel), the “stability under ethylene oxide sterilization, heating, and aging process” value was “not stable”.
Consider `OCCNCCO` [diethanolamine], for which the reaction with paclitaxel result in data set [2] is on record as “reacted with paclitaxel”.
On to `CC(=O)O[C@H]1C(=O)[C@@]2(C)[C@H]([C@H](OC(=O)c3ccccc3)[C@]3(O)C[C@H](OC(=O)[C@H](O)[C@@H](NC(=O)c4ccccc4)c4ccccc4)C(C)=C1C3(C)C)[C@]1(OC(C)=O)CO[C@@H]1C[C@@H]2O` [paclitaxel], for which, in data set [3], the “increase of solubility in PBS with the addition of BSA” value was “over 20 fold”.
Turning to `CO[C@H]1C[C@@H]2CC[C@@H](C)[C@@](O)(O2)C(=O)C(=O)N2CCCC[C@H]2C(=O)O[C@H]([C@H](C)C[C@@H]2CC[C@@H](O)[C@H](OC)C2)CC(=O)[C@H](C)/C=C(\C)[C@@H](O)[C@@H](OC)C(=O)[C@H](C)C[C@H](C)/C=C/C=C/C=C/1C` [rapamycin], the protein bound in the data set with protein (albumin) is 92%. The “share of protein binding that is to albumin” value with protein (albumin) (primarily to albumin) is reported as 97%.
With PEG-20 sorbitan monolaurate [Tween 20], the “log P” value in data set [1] is listed as “about 3.0”.
Regarding Sudan Red, the “solubility in aqueous solvent” value in data set [4] is on record as “insoluble in aqueous solvent”.

As usually defined, the log P is a log measure of how a compound divides between an organic and an aqueous phase.

Values taken from patent US11541152B2, “Medical device with drug-eluting coating on modified device surface” (Lutonix, Inc., priority 2018, dated 2023).
